Test results reported in US20170029451A1, “BRANCHED CHAIN ACYCLIC NUCLEOSIDE PHOSPHONATE ESTERS AND METHODS OF SYNTHESIS AND USES THEREOF” (CHIMERIX, INC., priority 2013, published 2017).
Read-outs that look alike come from different tables or passages of the source.

How the values were obtained:
[1] = system: HCMV UL54 resistant mutant 4955^R; assay: microbe, parasite or virus in culture; type: cell-based, Human Cytomegalovirus (HCMV); conditions: Human betaherpesvirus 5, Fibroblast
[2] = system: Epstein-Barr virus; assay: DNA Hybridization Assay for EBV in Akata cells; type: cell-based; conditions: human gammaherpesvirus 4, read-out: Efficacy DNA Hybridization Assay (EC50)
Description: Akata cells latently infected with EBV were obtained from John Sixbey. The GS strain of HHV-6A was obtained through the NIH AIDS Research and Reference Reagent Program.
Each experiment that evaluated the antiviral activity of the compounds included both positive and negative control compounds to ensure the performance of each assay. Concurrent assessment of cytotoxicity was also performed for each study at equivalent levels of compound exposure. When sufficient material was available, multiple assays were performed for each compound evaluation to obtain statistical data.
Assays for EBV were performed in Akata cells that were induced to undergo a lytic infection with 50 μg/ml of a goat anti-human IgG antibody by standard methods. Experimental compounds were diluted in round bottom 96-well plates to yield concentrations ranging from 20 to 0.016 μM. Akata cells were added to the plates at a concentration of 4×10^4 cells per well and incubated for 72 h. For HHV-6 assays, compounds were serially diluted in 96-well plates then 1×10^4 uninfected HSB-2 or Molt-3 cells were added to each well. Infection was initiated by adding HHV-6A infected HSB-2 cells, or HHV-6B infected Molt-3 cells, at a ratio of approximately 1 infected cell for every 10 uninfected HSB-2 cells or Molt-3 cells respectively and incubated for 7 d at 37° C. […]

[3] = Cytotoxicity (CC50) in MT4 cells; type: cell-based; conditions: human
Description: Costar 96-well tissue culture plates were seeded with 5,000 MT4 cells (NIH AIDS Reagents Program)/well in RPMI (Lonza, Cat 12-11F) containing 10% Hyclone Standard Fetal Bovine Serum (FBS, Cat 5H30088.03), 1% Hyclone Penicillin and Streptomycin (Cat SV30010), and 2 mM Lonza L-Glutamine (Cat 17-605E). Outer wells were not used to minimize the edge-effect produced by extended incubations. Serial dilutions of test compounds were added to the cells and plates were incubated for 6 days at 37° C. in 5% CO2. After 6 days of incubation 40 μL of Cell Titer 96® Aqueous MTS Reagent (Promega, G111) was added as directed by manufacturer to the 200 μL media in each well and incubated at 37° C. until the untreated-cell controls developed an 490 nm absorbance between 1.1 and 1.8. The final absorbance readings were read using a BioTek Synergy 2, and Gen 5 software (BioTek Instruments, Inc.) was used to calculate the concentration which inhibited MT4 cells by 50% (CC50).

[4] = Cytotoxicity (CC50) in Vero cells; type: cell-based; conditions: African green monkey, cell line Vero (BKV row)
Description: Costar 96-well tissue culture plates were seeded with 10,000 Vero cells (ATCC)/well in DMEM (ATCC, Cat 30-2002) containing 2% Hyclone Standard Fetal Bovine Serum (FBS, Cat 5H30088.03) and 1% Hyclone Penicillin and Streptomycin (Cat SV30010). Outer wells were not used to minimize the edge-effect produced by extended incubations. Serial dilutions of test compounds were added to the cells and plates were incubated for 7 days at 37° C. in 5% CO2. After 7 days of incubation 40 μL of Cell Titer 96® Aqueous MTS Reagent (Promega, G111) was added as directed by manufacturer to the 200 iut media in each well and incubated at 37° C. until the untreated-cell controls developed an 490 nm absorbance between 1.1 and 1.8. The final absorbance readings were read using a BioTek Synergy 2, and Gen 5 software (BioTek Instruments, Inc.) was used to calculate the concentration which inhibited Vero cells by 50% (CC50).

[5] = system: HBV; assay: HBV antiviral activity in 2.2.15 cells; type: cell-based; conditions: Hepatitis B virus, cell line 2.2.15
[6] = system: HHV-6B; assay: DNA hybridization assay for HHV-6B in MOLT-3 cells; type: cell-based, human herpes virus 6 (HHV-6); conditions: Homo sapiens; Virus HHV-6B, cell line MOLT-3
Description: Assays for EBV were performed in Akata cells that were induced to undergo a lytic infection with 50 μg/ml of a goat anti-human IgG antibody by standard methods. Experimental compounds were diluted in round bottom 96-well plates to yield concentrations ranging from 20 to 0.016 μM. Akata cells were added to the plates at a concentration of 4×10^4 cells per well and incubated for 72 h. For HHV-6 assays, compounds were serially diluted in 96-well plates then 1×10^4 uninfected HSB-2 or Molt-3 cells were added to each well. Infection was initiated by adding HHV-6A infected HSB-2 cells, or HHV-6B infected Molt-3 cells, at a ratio of approximately 1 infected cell for every 10 uninfected HSB-2 cells or Molt-3 cells respectively and incubated for 7 d at 37° C.
For all assays, 100 µl of denaturation buffer (1.2M NaOH, 4.5M […] NaCl) was added to each well to denature the DNA and a […] aliquot was aspirated through an Immobilon nylon membrane (Millipore, Bedford, Mass.) using a Biodot apparatus (Bio-Rad, Hercules, Calif.). The membranes were then allowed to dry before equilibration in DIG Easy Hyb (Roche Diagnostics, Indianapolis, Ind.) at 56° C. for 30 min. Specific digoxigenin (DIG)-labeled probes were prepared for each virus according to the manufacturer's protocol (Roche Diagnostics). […]

[7] = Cytotoxicity in MOLT-3 cells; type: cell-based; conditions: human, cell line MOLT-3 (HHV-6B row)
Description: Cell viability in all assays with lymphocytes was assessed with the CellTiter-Glo Luminescent Cell Viability Assay (Promega). Briefly, assay plates were incubated at ambient temperature for 30 min then 50 µl of CellTiter-Glo reagent was added to each well and the plates were mixed for 2 min on an orbital shaker to lyse the cells. Plates were then incubated for an additional 10 min at ambient temperature and the luminescence was quantified on a luminometer. Standard methods were used to calculate drug concentrations that inhibited the proliferation of Akata, HSB-2, BCLB-1, or Molt-3 cells by 50% (CC50).

[8] = in vitro; conditions: African green monkey

## CC(C)CCCCCCCCCCCCCCOCCCOP(=O)(O)COC(CO)Cn1ccc(=O)[nH]c1=O (stereo not shown) [Compound 12]
[1]; read-out: EC50 μM, Virus 4955^R, human foreskin fibroblast cells
  EC50: ~0.143 µM
[1]; read-out: EC90 μM
  EC90: 0.372 µM
[2]
  EC50: > 10 µM
[3]; MT4 cells (Table 7), read-out: MT4 CC50
  CC50 at 6 days: 25.6 µM
[3]; Mean XC50 (Table 9), read-out: MT4 cytotoxicity CC50
  CC50 at 6 days: 24.7 µM
[4]
  CC50 at 7 days: 93 µM
[5]
  EC50: 3 µM
[6]
  EC50: 4.7 µM
[7]
  CC50: 8.4 µM
[8]
  CC50: 29 µM
